Test results reported in US20030215462A1, “Use of UGT inhibitors to increase bioavailability” (priority 2001, published 2003).
“And” between values parts separate entries of the source, which are not always exact repeats. Equal values may be shown once.

Legend:
[1] = system: T1, UGT enzymes of human liver microsomes; assay: Inhibition of 7-HFC glucuronidation in human liver microsomes; assay type: biochemical; conditions: for % of control metabolism (SD, n = 3), 7-HFC glucuronidation: 7-HFC 50 μM, human liver microsomes 100 μg/ml, 15 min
T1 construct: percentage of control metabolism, 7-HFC glucuronidation; percentage of control metabolism, 7-HFC glucuronidation

[2] = system: UGT enzymes of human liver microsomes; assay: Inhibition of raloxifene glucuronidation (G1, G2) in human liver microsomes; assay type: biochemical; conditions: for % of control metabolism (SD, n = 3), raloxifene glucuronide G1 / % of control metabolism (SD, n = 3), raloxifene glucuronide G2: human liver microsomes 250 μg/ml, 15 min
Description: Compounds were eluted using a binary solvent gradient system. […] Solvent B was methanol. […] Detection was at 280 nm.

[3] = target: T2, UGT enzymes of human liver microsomes (Homo sapiens, UniProt P16662); assay: Inhibition of zidovudine glucuronidation in human liver microsomes; assay type: biochemical; conditions: liver lot 062101
T2 construct: residual metabolism (percentage of control), zidovudine glucuronidation; other: liver lot 062101; residual metabolism (percentage of control), zidovudine glucuronidation; residual metabolism (percentage of control)
T2 sequence (P16662 1-529): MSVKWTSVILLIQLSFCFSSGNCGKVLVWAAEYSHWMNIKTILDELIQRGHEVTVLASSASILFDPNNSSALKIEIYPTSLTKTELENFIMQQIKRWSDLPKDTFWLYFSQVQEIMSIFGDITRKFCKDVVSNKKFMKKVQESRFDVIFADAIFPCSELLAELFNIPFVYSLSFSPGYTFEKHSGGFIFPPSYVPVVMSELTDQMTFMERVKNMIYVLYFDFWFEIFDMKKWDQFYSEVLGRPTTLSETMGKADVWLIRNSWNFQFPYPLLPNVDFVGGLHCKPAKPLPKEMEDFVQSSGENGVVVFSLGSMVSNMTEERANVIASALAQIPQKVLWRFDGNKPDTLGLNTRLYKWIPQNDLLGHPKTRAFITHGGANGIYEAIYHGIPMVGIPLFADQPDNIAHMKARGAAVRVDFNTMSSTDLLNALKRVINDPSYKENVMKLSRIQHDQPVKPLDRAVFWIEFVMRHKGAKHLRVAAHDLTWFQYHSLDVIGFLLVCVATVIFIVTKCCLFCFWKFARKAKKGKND
Procedure: Compounds were eluted using a binary solvent gradient system where solvent A was dilute phosphoric acid (pH 3) and solvent B was acetonitrile.
Standardized incubations utilized 500 μM zidovudine substrate, 1 mg/ml microsomal protein, 5 mM UDPGA and a 30 min incubation time. […] Int.

UGT1A3 = target: T3, UGT1A3 (Homo sapiens, UniProt P35503); assay: Inhibition of raloxifene glucuronidation by recombinant UGT1A3 Supersomes; conditions: for Inhibition of raloxifene glucuronidation, G1, UGT1A3 / Inhibition of raloxifene glucuronidation, G2, UGT1A3: raloxifene 50 μM, 250 μg/ml Supersomes, 1 mM UDPGA, 15 min
T3 sequence (P35503 29-534): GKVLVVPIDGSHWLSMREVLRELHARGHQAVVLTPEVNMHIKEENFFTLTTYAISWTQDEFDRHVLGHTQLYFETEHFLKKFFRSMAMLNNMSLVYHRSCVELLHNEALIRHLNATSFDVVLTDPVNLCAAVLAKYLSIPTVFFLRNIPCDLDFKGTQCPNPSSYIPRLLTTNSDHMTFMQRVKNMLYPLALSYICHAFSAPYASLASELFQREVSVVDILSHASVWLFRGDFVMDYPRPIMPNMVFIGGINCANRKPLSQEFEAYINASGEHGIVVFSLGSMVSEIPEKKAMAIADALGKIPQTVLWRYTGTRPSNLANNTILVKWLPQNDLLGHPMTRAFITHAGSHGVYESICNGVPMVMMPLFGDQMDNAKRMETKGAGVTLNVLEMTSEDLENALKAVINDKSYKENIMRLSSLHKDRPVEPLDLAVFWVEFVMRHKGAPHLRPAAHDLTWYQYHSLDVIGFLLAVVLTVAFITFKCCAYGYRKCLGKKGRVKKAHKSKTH
Procedure: Compounds were eluted using a binary solvent gradient system. Solvent A was water brought to pH 8 with NH4OH. Solvent B was methanol. Solvent flow rate was 1 ml/min and the column temperature was maintained at 50° C. Detection was at 280 nm. […] The system was then returned to the initial conditions and equilibrated for 3 min.

UGT1A9 = target: T4, UGT1A9 (Homo sapiens, UniProt O60656); assay: Inhibition of raloxifene glucuronidation by recombinant UGT1A9 Supersomes; conditions: for Inhibition of raloxifene glucuronidation, UGT1A9, first line per inhibitor (G1): first line (G1, metabolite not given); for Inhibition of raloxifene glucuronidation, UGT1A9, first line per inhibitor (G1) / Inhibition of raloxifene glucuronidation, UGT1A9, second line per inhibitor (G2): raloxifene 50 μM, 250 μg/ml Supersomes, 1 mM UDPGA, 15 min; for Inhibition of raloxifene glucuronidation, UGT1A9, second line per inhibitor (G2): second line (G2, metabolite not given)
T4 sequence (O60656 26-530): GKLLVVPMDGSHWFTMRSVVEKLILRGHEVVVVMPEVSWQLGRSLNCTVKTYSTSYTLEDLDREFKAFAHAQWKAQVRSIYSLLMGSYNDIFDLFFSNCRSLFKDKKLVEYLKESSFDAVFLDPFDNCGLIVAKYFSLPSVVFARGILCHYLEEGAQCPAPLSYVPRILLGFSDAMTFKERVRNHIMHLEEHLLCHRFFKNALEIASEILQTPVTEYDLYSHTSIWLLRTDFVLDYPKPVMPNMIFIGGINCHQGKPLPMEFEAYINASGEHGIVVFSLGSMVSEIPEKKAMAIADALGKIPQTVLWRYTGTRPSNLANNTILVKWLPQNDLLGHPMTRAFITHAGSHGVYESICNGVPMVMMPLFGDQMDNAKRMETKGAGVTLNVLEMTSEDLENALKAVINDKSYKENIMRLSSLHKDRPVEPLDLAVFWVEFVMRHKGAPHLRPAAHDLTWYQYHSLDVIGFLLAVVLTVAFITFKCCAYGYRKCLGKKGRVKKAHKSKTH

[4] = inhibitor 10 μM, raloxifene 50 μM
[5] = inhibitor 25 μM, raloxifene 50 μM
[6] = inhibitor 50 μM, raloxifene 50 μM
[7] = inhibitor 100 μM, raloxifene 50 μM
[8] = inhibitor 500 μM, raloxifene 50 μM
[9] = liver lot 032101, inhibitor 50 μM
[10] = liver lot 062101, inhibitor 50 μM
[11] = liver lot 083000, inhibitor 50 μM
[12] = raloxifene 50 μM, inhibitor 10 μM
[13] = raloxifene 50 μM, inhibitor 25 μM
[14] = raloxifene 50 μM, inhibitor 50 μM
[15] = raloxifene 50 μM, inhibitor 100 μM

Question: What does the source list for `O=C(O[C@@H]1Cc2c(O)cc(O)cc2O[C@@H]1c1cc(O)c(O)c(O)c1)c1cc(O)c(O)c(O)c1` [Epigallocatechin gallate]?
Answer: percentage of control metabolism, 7-HFC glucuronidation ([1]; inhibitor 100 μM): 67 (1) %; % of control metabolism (SD, n = 3), 7-HFC glucuronidation ([1]; inhibitor 100 μM): 67 (1) %; percentage of control metabolism, 7-HFC glucuronidation ([1]; inhibitor 200 μM): 37 (2) %; % of control metabolism (SD, n = 3), 7-HFC glucuronidation ([1]; inhibitor 200 μM): 37 (2) %; percentage of control metabolism, 7-HFC glucuronidation ([1]; inhibitor 500 μM): 5 (1) %; % of control metabolism (SD, n = 3), 7-HFC glucuronidation ([1]; inhibitor 500 μM): 5 (1) %; % of control metabolism (SD, n = 3), raloxifene glucuronide G1 [2, 4]: 85 (3) %; % of control metabolism (SD, n = 3), raloxifene glucuronide G1 [2, 5]: 56 (1) %; % of control metabolism (SD, n = 3), raloxifene glucuronide G1 [2, 6]: 46 (2) %; % of control metabolism (SD, n = 3), raloxifene glucuronide G1 [2, 7]: 22 (1) %; % of control metabolism (SD, n = 3), raloxifene glucuronide G1 [2, 8]: 0 (0) %; % of control metabolism (SD, n = 3), raloxifene glucuronide G2 [2, 4]: 82 (3) %; % of control metabolism (SD, n = 3), raloxifene glucuronide G2 [2, 5]: 63 (1) %; % of control metabolism (SD, n = 3), raloxifene glucuronide G2 [2, 6]: 50 (3) %; % of control metabolism (SD, n = 3), raloxifene glucuronide G2 [2, 7]: 27 (2) %; % of control metabolism (SD, n = 3), raloxifene glucuronide G2 [2, 8]: 0 (0) %; % of control metabolism, raloxifene G1 [2, 9]: 54 (2) %; % of control metabolism, raloxifene G2 [2, 9]: 50 (2) %; % of control metabolism, raloxifene G1 [2, 10]: 68 (2) %; % of control metabolism, raloxifene G2 [2, 10]: 41 (2) %; % of control metabolism, raloxifene G1 [2, 11]: 46 (2) %; % of control metabolism, raloxifene G2 [2, 11]: 50 (3) %; % of control metabolism, raloxifene G1 [2, 12]: 85 (3) %; % of control metabolism, raloxifene G2 [2, 12]: 82 (3) %; % of control metabolism, raloxifene G1 [2, 13]: 56 (1) %; % of control metabolism, raloxifene G2 [2, 13]: 63 (1) %; % of control metabolism, raloxifene G1 [2, 14]: 46 (2) %; % of control metabolism, raloxifene G2 [2, 14]: 50 (3) %; % of control metabolism, raloxifene G1 [2, 15]: 22 (1) %; % of control metabolism, raloxifene G2 [2, 15]: 27 (2) %; residual metabolism (percentage of control), zidovudine glucuronidation ([3]; inhibitor 50 μM): 70 (1) %; residual metabolism (percentage of control), zidovudine glucuronidation ([3]; inhibitor 100 μM): 60 (2) %; residual metabolism (percentage of control), zidovudine glucuronidation ([3]; inhibitor 200 μM): 39 (2) %; residual metabolism (percentage of control), zidovudine glucuronidation ([3]; inhibitor 500 μM): 18 (1) %; Inhibition of raloxifene glucuronidation, G1, UGT1A3 (UGT1A3; inhibitor 25 μM): 69 (2); Inhibition of raloxifene glucuronidation, G1, UGT1A3 (UGT1A3; inhibitor 50 μM): 26 (2); Inhibition of raloxifene glucuronidation, G2, UGT1A3 (UGT1A3; inhibitor 25 μM): 64 (3); Inhibition of raloxifene glucuronidation, G2, UGT1A3 (UGT1A3; inhibitor 50 μM): 25 (1); % of control metabolism, raloxifene G1 (UGT1A3; UGT1A3, inhibitor 25 μM): 69 (2) %; % of control metabolism, raloxifene G2 (UGT1A3; UGT1A3, inhibitor 25 μM): 64 (3) %; % of control metabolism, raloxifene G1 (UGT1A3; UGT1A3, inhibitor 50 μM): 26 (2) %; % of control metabolism, raloxifene G2 (UGT1A3; UGT1A3, inhibitor 50 μM): 25 (1) %; % of control metabolism, raloxifene G1 (UGT1A9; UGT1A9, inhibitor 25 μM): 58 (1) %; % of control metabolism, raloxifene G2 (UGT1A9; UGT1A9, inhibitor 25 μM): 50 (1) %; % of control metabolism, raloxifene G1 (UGT1A9; UGT1A9, inhibitor 50 μM): 33 (4) %; % of control metabolism, raloxifene G2 (UGT1A9; UGT1A9, inhibitor 50 μM): 22 (2) %; Inhibition of raloxifene glucuronidation, UGT1A9, first line per inhibitor (G1) (UGT1A9; inhibitor 25 μM): 58 (1); Inhibition of raloxifene glucuronidation, UGT1A9, first line per inhibitor (G1) (UGT1A9; inhibitor 50 μM): 33 (4); Inhibition of raloxifene glucuronidation, UGT1A9, second line per inhibitor (G2) (UGT1A9; inhibitor 25 μM): 50 (1); Inhibition of raloxifene glucuronidation, UGT1A9, second line per inhibitor (G2) (UGT1A9; inhibitor 50 μM): 22 (2)

Question: With `C=CCc1ccc(O)c(OC)c1` [Eugenol] as the molecule, how does the “% of control metabolism (SD, n = 3), 7-HFC glucuronidation” value ([1]; inhibitor 500 μM) read?
Answer: The value was 63 (1) %.

Question: And the “% of control metabolism, raloxifene G1” value ([2]; 50 µM)?
Answer: Its value is 39 (0), 41 (3) % and 65 (1), 63 (3) % and 69 (4), 53 (2) %.

Question: And the “% of control metabolism, raloxifene G2” value ([2]; 50 µM)?
Answer: The value was 39 (0), 41 (3) % and 65 (1), 63 (3) % and 69 (4), 53 (2) %.

Question: And the “residual metabolism (percentage of control), zidovudine glucuronidation” value ([3]; inhibitor 500 μM)?
Answer: Its value is 84 (2) %.

Question: And the “residual metabolism (percentage of control), zidovudine glucuronidation” value ([3]; inhibitor 1000 μM)?
Answer: The value was 48 (4) %.

Question: And the “inhibition of raloxifene glucuronidation, in words” value (UGT1A3; UGT1A3)?
Answer: Its value is “ineffective”.

Question: What about the “inhibition of raloxifene glucuronidation, in words” value (UGT1A9; UGT1A9) of the same molecule?
Answer: Its value is “amongst the best inhibitors”.
